Experimental findings from patent US20240252506A1 (Hoffmann-La Roche Inc., priority 2021, published 2024) are described below.

The structures appear in SMILES notation. Values after ≈ are worked out from the molar mass of the structure shown. Structures can show the parent of a compound that is named as a salt. Bounds are passed on as bounds.

One assay concerns Escherichia coli ATCC 25922. The assay can be described thus: Minimal Inhibitory Concentration (MIC) determination, broth microdilution (CLSI M07-A10). It is filed as cell-based. Conditions: Escherichia coli, ATCC25922, strain Escherichia coli ATCC 25922, 18-24 hours at 35±2° C., lowest concentration for complete growth inhibition (no visible growth), read-out: Escherichia coli growth inhibition MIC. The method, then: Minimal Inhibitory Concentration (MIC) Determination:
The MIC of antibacterial compounds against multiple species and strains was determined using the broth microdilution method according to M07-A10 Clinical and Laboratory Standards Institute (CLSI) guidelines, using the appropriate broth medium. In short, the compound plates were prepared by dispensing 100 μL of each stock solution in the first well of a 96 well microtiter plate (MTP) at a concentration 100-fold higher than the final concentration desired in broth. Eleven serial 2-fold dilutions of the highest concentration were made in DMSO for new compounds and in water (or appropriate solution) for reference compounds [2]. 1 μL of each well was transferred in a new MTP, which served as the test plate by subsequent inoculation. This bacterial suspension was prepared from strains that were first sub-cultured on agar plates and incubated for 18-24 hours as appropriate. Following incubation, the inoculum was prepared from isolated colonies and adjusted to 0.5 McFarland turbidity standard (1 to 2×10^8 Colony Forming Units (CFU)/mL) in 0.9% saline. The bacterial suspension was then diluted 1:200 in appropriate sterile medium and within 15 minutes 100 μL/well were dispensed. Negative controls (lack of bacterial cells) and growth control wells (lack of compound) were included in all plates. MTPs were incubated for 18-24 hours at 35±2° C. in ambient air. The MIC value of each compound, expressed as μg/mL, was determined as the lowest concentration required for complete growth inhibition (no visible growth). • [1] CLSI (2015) Methods for dilution antimicrobial susceptibility tests for bacteria that grow aerobically; Approved Standard, Tenth Edition. CLSI Document M7-A10 (ISBN 1-56238-987-4). Wayne, PA: Clinical and Laboratory Standards Institute, 19087, USA. • [2] CLSI (2017) Performance Standards for Antimicrobial Susceptibility Testing; Twenty-Fifth Informational Supplement. CLSI Document M100-S27, CLSI, Wayne, Pennsylvania 19087, USA.
Table 1 provides the Minimal Inhibitory Concentrations (MIC) in micrograms per millilitre of the compounds of present invention obtained against the strain Escherichia coli ATCC 25922.
As a reminder, the MIC is the least concentration at which growth counts as inhibited. As to `CNCCn1nnc2c(F)c3c(c(F)c21)CC(CN1CCC2(CC1)CN(c1cnc4c(n1)NC(=O)CO4)C(=O)O2)C3` (single isomer, unassigned) [Example 118, 6-[2-oxo-8-[[4,8-difluoro-1-[2-(methylamino)ethyl]-6,7-dihydro-5H-cyclopenta[f]benzotriazol-6-yl]methyl]-1-oxa-3,8-diazaspiro[4.5]decan-3-yl]-4H-pyrazino[2,3-b][1,4]oxazin-3-one], the MIC was found to be 0.125 µg/mL (≈ 0.219 µM).

As to `O=C1COc2ncc(N3CC4(CCN(CC5Cc6c(c(F)c7c(nnn7C7CNC7)c6F)C5)CC4)OC3=O)nc2N1.O=CO` (single isomer, unassigned) [Example 120, 6-[8-[[1-(azetidin-3-yl)-4,8-difluoro-6,7-dihydro-5H-cyclopenta[f]benzotriazol-6-yl]methyl]-2-oxo-1-oxa-3,8-diazaspiro[4.5]decan-3-yl]-4H-pyrazino[2,3-b][1,4]oxazin-3-one; formic acid], the MIC is 0.25 µg/mL.

On to `O=C1COc2ncc(N3CC4(CCN(CC5Cc6c(c(F)c7c(nnn7CCNC7CC7)c6F)C5)CC4)OC3=O)nc2N1.O=CO` (single isomer, unassigned) [Example 124, 6-[8-[[1-[2-(Cyclopropylamino)ethyl]-4,8-difluoro-6,7-dihydro-5H-cyclopenta[f]benzotriazol-6-yl]methyl]-2-oxo-1-oxa-3,8-diazaspiro[4.5]decan-3-yl]-4H-pyrazino[2,3-b][1,4]oxazin-3-one;formic acid], for which the MIC was determined as 0.5 µg/mL.

On to `CNCCn1cnc2c(F)c3c(c(F)c21)CC(CN1CCC2(CC1)CN(c1cnc4c(n1)NC(=O)CO4)C(=O)O2)C3` (single isomer, unassigned) [Example 126, 6-[2-oxo-8-[[4,8-difluoro-1-[2-(methylamino)ethyl]-6,7-dihydro-5H-cyclopenta[f]benzimidazol-6-yl]methyl]-1-oxa-3,8-diazaspiro[4.5]decan-3-yl]-4H-pyrazino[2,3-b][1,4]oxazin-3-one], for which the minimal inhibitory concentration (MIC) amounted to 0.25 µg/mL (≈ 0.44 µM).

Regarding `C[C@H](N)Cn1nnc2c(F)c3c(c(F)c21)CC(CN1CCC2(CC1)CN(c1cnc4c(n1)NC(=O)CO4)C(=O)O2)C3.Cl` (single isomer, unassigned) [Example 130], the MIC was 0.25 µg/mL.

On to `CNCc1nc2cc3c(c(F)c2o1)CC(CN1CCC2(CC1)CN(c1ccc4c(n1)NC(=O)CO4)C(=O)O2)C3` (single isomer, unassigned) [Example 136, 6-[8-[[8-Fluoro-2-(methylaminomethyl)-6,7-dihydro-5H-cyclopenta[f][1,3]benzoxazol-6-yl]methyl]-2-oxo-1-oxa-3,8-diazaspiro[4.5]decan-3-yl]-4H-pyrido[3,2-b][1,4]oxazin-3-one], for which the MIC turned out to be 1 µg/mL (≈ 1.86 µM).

As to `O=C1COc2ncc(N3CC4(CCN(CC5Cc6cc7nc([C@@H]8C[C@@H](O)CN8)oc7c(F)c6C5)CC4)OC3=O)nc2N1` (single isomer, unassigned) [Example 141], the MIC was found to be 0.5 µg/mL (≈ 0.863 µM).

Regarding `CN[C@@H](CO)c1nc2cc3c(c(F)c2o1)CC(CN1CCC2(CC1)CN(c1cnc4c(n1)NC(=O)CO4)C(=O)O2)C3` (single isomer, unassigned) [Example 145], the MIC was determined as 0.5 µg/mL (≈ 0.881 µM).

Staying with this assay, now noted: strain Escherichia coli ATCC 25922, 18-24 hours at 35±2° C., lowest concentration for complete growth inhibition (no visible growth).
As to `CNCCn1nnc2c(F)c3c(c(F)c21)CC(CN1CCC2(CC1)CN(c1cnc4c(n1)NC(=O)CO4)C(=O)O2)C3` (single isomer, unassigned) [Example 119, 6-[2-oxo-8-[[4,8-difluoro-1-[2-(methylamino)ethyl]-6,7-dihydro-5H-cyclopenta[f]benzotriazol-6-yl]methyl]-1-oxa-3,8-diazaspiro[4.5]decan-3-yl]-4H-pyrazino[2,3-b][1,4]oxazin-3-one], the “Escherichia coli growth inhibition MIC” value worked out at 0.125 µg/mL.

`O=C1COc2ncc(N3CC4(CCN(CC5Cc6c(c(F)c7c(nnn7CCNC7CC7)c6F)C5)CC4)OC3=O)nc2N1.O=CO` (single isomer, unassigned) [Example 125, 6-[8-[[1-[2-(Cyclopropylamino)ethyl]-4,8-difluoro-6,7-dihydro-5H-cyclopenta[f]benzotriazol-6-yl]methyl]-2-oxo-1-oxa-3,8-diazaspiro[4.5]decan-3-yl]-4H-pyrazino[2,3-b][1,4]oxazin-3-one;formic acid]: the “Escherichia coli growth inhibition MIC” value was determined as 0.25 µg/mL.

As for `CNCCn1cnc2c(F)c3c(c(F)c21)CC(CN1CCC2(CC1)CN(c1cnc4c(n1)NC(=O)CO4)C(=O)O2)C3` (single isomer, unassigned) [Example 127], the “Escherichia coli growth inhibition MIC” value came to 0.25 µg/mL.

Regarding `CNCc1nc2cc3c(c(F)c2o1)CC(CN1CCC2(CC1)CN(c1ccc4c(n1)NC(=O)CO4)C(=O)O2)C3` (single isomer, unassigned) [Example 137, 6-[8-[[8-Fluoro-2-(methylaminomethyl)-6,7-dihydro-5H-cyclopenta[f][1,3]benzoxazol-6-yl]methyl]-2-oxo-1-oxa-3,8-diazaspiro[4.5]decan-3-yl]-4H-pyrido[3,2-b][1,4]oxazin-3-one], the “Escherichia coli growth inhibition MIC” value came to 0.5 µg/mL.

Still in this assay, the particulars now being: strain Escherichia coli ATCC 25922, 18-24 hours at 35±2° C., lowest concentration for complete growth inhibition (no visible growth), dihydrochloride.
On to `NCCn1nc2cc3c(c(F)c2n1)CC(CN1CCC2(CC1)CN(c1ccc4c(n1)NC(=O)CO4)C(=O)O2)C3` (single isomer, unassigned) [Example 132, 6-[2-oxo-8-[[2-(2-aminoethyl)-8-fluoro-6,7-dihydro-5H-cyclopenta[f]benzotriazol-6-yl]methyl]-1-oxa-3,8-diazaspiro[4.5]decan-3-yl]-4H-pyrido[3,2-b][1,4]oxazin-3-one dihydrochloride], for which the “Escherichia coli growth inhibition MIC” value worked out at 0.25 µg/mL.

For `NCCn1nc2cc3c(c(F)c2n1)CC(CN1CCC2(CC1)CN(c1ccc4c(n1)NC(=O)CO4)C(=O)O2)C3` (single isomer, unassigned) [Example 133, 6-[2-oxo-8-[[2-(2-aminoethyl)-8-fluoro-6,7-dihydro-5H-cyclopenta[f]benzotriazol-6-yl]methyl]-1-oxa-3,8-diazaspiro[4.5]decan-3-yl]-4H-pyrido[3,2-b][1,4]oxazin-3-one dihydrochloride], the “Escherichia coli growth inhibition MIC” value was 1 µg/mL.

Consider `NCCn1nc2cc3c(c(F)c2n1)CC(CN1CCC2(CC1)CN(c1cnc4c(n1)NC(=O)CO4)C(=O)O2)C3` (single isomer, unassigned) [Example 134, 6-[2-oxo-8-[[2-(2-aminoethyl)-8-fluoro-6,7-dihydro-5H-cyclopenta[f]benzotriazol-6-yl]methyl]-1-oxa-3,8-diazaspiro[4.5]decan-3-yl]-4H-pyrazino[2,3-b][1,4]oxazin-3-one dihydrochloride], for which the “Escherichia coli growth inhibition MIC” value was found to be 0.125 µg/mL.

Turning to `NCCn1nc2cc3c(c(F)c2n1)CC(CN1CCC2(CC1)CN(c1cnc4c(n1)NC(=O)CO4)C(=O)O2)C3` (single isomer, unassigned) [Example 135, 6-[2-oxo-8-[[2-(2-aminoethyl)-8-fluoro-6,7-dihydro-5H-cyclopenta[f]benzotriazol-6-yl]methyl]-1-oxa-3,8-diazaspiro[4.5]decan-3-yl]-4H-pyrazino[2,3-b][1,4]oxazin-3-one dihydrochloride], the “Escherichia coli growth inhibition MIC” value is not above 0.06 µg/mL.

Still in this assay, the particulars now being: strain Escherichia coli ATCC 25922, 18-24 hours at 35±2° C., lowest concentration for complete growth inhibition (no visible growth), formic acid.
Turning to `O=C1COc2ncc(N3CC4(CCN(CC5Cc6cc7c(nnn7C7CNC7)c(F)c6C5)CC4)OC3=O)nc2N1.O=CO` (single isomer, unassigned) [Example 116, 6-[2-oxo-8-[[3-(azetidin-3-yl)-8-fluoro-6,7-dihydro-5H-cyclopenta[f]benzotriazol-6-yl]methyl]-1-oxa-3,8-diazaspiro[4.5]decan-3-yl]-4H-pyrazino[2,3-b][1,4]oxazin-3-one; formic acid], the “Escherichia coli growth inhibition MIC” value stood at 0.25 µg/mL.

For `O=C1COc2ncc(N3CC4(CCN(CC5Cc6c(c(F)c7c(nnn7C7CNC7)c6F)C5)CC4)OC3=O)nc2N1.O=CO` (single isomer, unassigned) [Example 121, 6-[8-[[1-(azetidin-3-yl)-4,8-difluoro-6,7-dihydro-5H-cyclopenta[f]benzotriazol-6-yl]methyl]-2-oxo-1-oxa-3,8-diazaspiro[4.5]decan-3-yl]-4H-pyrazino[2,3-b][1,4]oxazin-3-one; formic acid], the “Escherichia coli growth inhibition MIC” value came to 0.125 µg/mL.

The same assay, now with this note: strain Escherichia coli ATCC 25922, 18-24 hours at 35±2° C., lowest concentration for complete growth inhibition (no visible growth), hydrochloride.
Regarding `C[C@H](N)Cn1nnc2c(F)c3c(c(F)c21)CC(CN1CCC2(CC1)CN(c1cnc4c(n1)NC(=O)CO4)C(=O)O2)C3.Cl` (single isomer, unassigned) [Example 131], the “Escherichia coli growth inhibition MIC” value was 0.125 µg/mL.
